The assay relates to IgE antibodies from patients. Kind of assay: Wheat epitope mapping (2): overlapping 10-amino-acid peptide fragments shifted by one amino acid.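 As to Rank of partial sequence as epitope binding to IgE antibody: key = sequence deemed particularly important within the common 15-residue sequence.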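 As to epitope sequence binding to IgE antibody, rank (Key/Preferably/More preferably): key of grades: preferably = shorter partial sequence still acting as epitope; more preferably = sequence improving IgE binding; key = particularly important sequence.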 In kind it is binding, human. The protocol:
The peptides to be synthesized were shifted by one amino acid.
The library was prepared by the same procedure as described above in (A), and the presence or absence of binding of an IgE antibody present in the serum of a patient to each peptide fragment was measured by the same technique as described above. Numeric values determined from images obtained as a result of carrying out only the procedures (1) and (4) to (6) described above in the subsection titled (3) Spotting of cellulose-bound peptide solution were used as control values. The control value of each peptide was subtracted from numeric values determined from images obtained from results about the serum of patients, and the obtained value of the difference was compared with values of the peptides serving as the basis of overlapping.
Chemiluminescence intensity in images obtained by measurement was converted into a numeric value in the same manner as in (A). Numeric values determined from images obtained as a result of carrying out only the procedures (1) and (4) to (6) described above in the subsection titled (3) Spotting of cellulose-bound peptide solution (secondary antibody measurement values) were used as control values. The control value of each peptide was subtracted from numeric values determined from images obtained from results about the serum of patients. When values obtained using the sequences (SEQ ID NOs: 29, 131, 191, 281, 346, 414, 493, 562, 640, 706, 776, 899, 974, 1010, 1089, 1142, 1166, 1209, 1257, 1297, 1367, 1403, 1508, 1566, 1598, 1608, 1685, 1753, 1789, 1836, 1895, 1977, 2004, 2027, 2068, 2154, 2217, 2265, 2309, 2342, 2419, 2491, 2545, 2613, 2631, 2674, 2701, 2774, 2809 and 2830) serving as the basis of overlapping were defined as 100%, it was determined that: a peptide having a value of the difference that was less than 30% had no binding activity against IgE antibodies; a peptide having a value of the difference that was 30% or more and less than 50% had binding activity, albeit poor, against IgE antibodies; a peptide having a value of the difference that was 50% or more and less than 70% had binding activity, albeit somewhat poor, against IgE antibodies; and a peptide having a value of the difference that was 70% or more had equivalent or good binding activity against IgE antibodies and was thus a peptide had remaining binding activity against IgE antibodies.

Setting [1] is: serum of patient P20 (WDEIA), sequence without X.
The mark [2] stands for this setting: serum of patient P24 (WDEIA), sequence without X.
The mark [3] stands for this setting: serum of patient P22 (WDEIA), partial sequence.
The mark [4] stands for this setting: serum of patient P17 (WDEIA), partial sequence.
[5] abbreviates: serum of patient G3 (adult, general immediate type allergy to wheat), partial sequence.
[6] abbreviates: serum of patient P31 (WDEIA), partial sequence.
Setting [7] is: serum of patient P33 (WDEIA), sequence without X.

On to “1244 (PIQQQP; REGION 1..6: note = epitope) [compound 1244]”, for which the “Epitope sequence binding to IgE antibody, rank of the sequence” value (serum of patient P31 (WDEIA), sequence without X) was “Key”. With “2233 (IRNYRVAI; REGION 1..8: note = epitope) [compound 2233]”, the “Epitope sequence binding to IgE antibody, rank of the sequence (Key/Preferably/More preferably)” value (serum of patient P29 (WDEIA), sequence without X) is “Preferably”.

Consider “2707 (YKIGGIGT; REGION 1..8: note = epitope) [compound 2707]”, for which the “Epitope sequence binding to IgE antibody, rank of the sequence” value (serum of patient P8 (WDEIA), partial sequence) was “Key”. Regarding “1478 (YLQPQQPIS; REGION 1..9: note = epitope) [compound 1478]”, for the setting “serum of patient P32 (WDEIA), sequence without X”, the “Rank of partial sequence as epitope binding to IgE antibody” value (“Rank of partial sequence” for short) is “Key”. For the substance “2602 (QQSTYQLV; REGION 1..8: note = epitope) [compound 2602]”, under “serum of patient P54 (child, general immediate type allergy to wheat), partial sequence”, the “Epitope sequence binding to IgE antibody, rank of the sequence” value was “Key”. As for “1582 (FPQTQQPQ; REGION 1..8: note = epitope) [compound 1582]”, under setting [1], the “Rank of partial sequence” value is “Preferably”. For “1642 (YNPD; REGION 1..4: note = epitope) [compound 1642]”, the “Rank of partial sequence” value (serum of patient P35 (WDEIA), sequence without X) is reported as “Key”. On to “2727 (GIGTVPVGR; REGION 1..9: note = epitope) [compound 2727]”, for which the “Epitope sequence binding to IgE antibody, rank of the sequence” value (serum of patient P27 (WDEIA), partial sequence) is recorded as “Key”. As to “1459 (YLQPQQPISQ; REGION 1..10: note = epitope) [compound 1459]”, under setting [2], the “Rank of partial sequence” value is recorded as “Further preferably”. Take “1716 (SQVIIM; REGION 1..6: note = epitope) [compound 1716]”: under “serum of patient P35 (WDEIA)”, the “epitope sequence binding to IgE antibody, rank (Key/Preferably/More preferably)” value is “Key”.

Take “1914 (QQFPGQQ; REGION 1..7: note = epitope) [compound 1914]”: the “epitope sequence binding to IgE antibody, rank (Key/Preferably/More preferably)” value (serum of patient P8 (WDEIA)) was “Key”. With “1460 (LQPQQPISQ; REGION 1..9: note = epitope) [compound 1460]”, the “Rank of partial sequence” value under setting [2] was “More preferably”. “2733 (YKIGGI; REGION 1..6: note = epitope) [compound 2733]”: for the setting “serum of patient P29 (WDEIA), partial sequence”, the “Epitope sequence binding to IgE antibody, rank of the sequence” value is on record as “Preferably”. For the substance “2560 (LQQSTYQLVQ; REGION 1..10: note = epitope) [compound 2560]”, the “Epitope sequence binding to IgE antibody, rank of the sequence” value under setting [3] is listed as “Key”. As to “2515 (SFQPSQ; REGION 1..6: note = epitope) [compound 2515]”, the “Epitope sequence binding to IgE antibody, rank of the sequence” value (serum of patient P51 (child, general immediate type allergy to wheat), partial sequence) is recorded as “Key”. As for “1777 (KEVSSYLKK; REGION 1..9: note = epitope) [compound 1777]”, the “epitope sequence binding to IgE antibody, rank (Key/Preferably/More preferably)” value (serum of patient G2 (adult, general immediate type allergy to wheat)) is “Key”. Turning to “1849 (TVRTLQR; REGION 1..7: note = epitope) [compound 1849]”, the “epitope sequence binding to IgE antibody, rank (Key/Preferably/More preferably)” value (serum of patient P16 (WDEIA)) is recorded as “Preferably”. Turning to “1861 (TVRTLQRT; REGION 1..8: note = epitope) [compound 1861]”, the “epitope sequence binding to IgE antibody, rank (Key/Preferably/More preferably)” value (serum of patient P24 (WDEIA)) is given as “Preferably”.

With “1698 (KEAANFT; REGION 1..7: note = epitope) [compound 1698]”, where the note is “serum of patient P21 (WDEIA), sequence without X”, the “Rank of partial sequence” value is on record as “More preferably”. With “2357 (HDIDRCAY; REGION 1..8: note = epitope) [compound 2357]”, the “Epitope sequence binding to IgE antibody, rank of the sequence (Key/Preferably/More preferably)” value (serum of patient P18 (WDEIA), sequence without X) is given as “Key”.

For “2504 (SSQVSF; REGION 1..6: note = epitope) [compound 2504]”, under “serum of patient P16 (WDEIA), partial sequence”, the “Epitope sequence binding to IgE antibody, rank of the sequence” value is given as “Preferably”. Consider “2714 (GIGTVPVGRV; REGION 1..10: note = epitope) [compound 2714]”, for which, under setting [4], the “Epitope sequence binding to IgE antibody, rank of the sequence” value is recorded as “Key”. Turning to “1936 (QVPLVQQ; REGION 1..7: note = epitope) [compound 1936]”, where the note is “serum of patient P19 (WDEIA)”, the “epitope sequence binding to IgE antibody, rank (Key/Preferably/More preferably)” value is “Key”. On to “2558 (QSTYQLVQQL; REGION 1..10: note = epitope) [compound 2558]”, for which the “Epitope sequence binding to IgE antibody, rank of the sequence” value (serum of patient P21 (WDEIA), partial sequence) is recorded as “Key”. As for “2624 (AKPLL; REGION 1..5: note = epitope) [compound 2624]”, under setting [5], the “Epitope sequence binding to IgE antibody, rank of the sequence” value is given as “Key”. As for “1405 (YLQPQQPISQ; REGION 1..10: note = epitope) [compound 1405]”, the “Epitope sequence binding to IgE antibody, rank of the sequence (Key/Preferably/More preferably/Further preferably)” value (serum of patient P2 (WDEIA), sequence without X) is “Key”.

Turning to “1313 (NVEN; REGION 1..4: note = epitope) [compound 1313]”, the “Epitope sequence binding to IgE antibody, rank of the sequence” value (serum of patient P12 (WDEIA), sequence without X) is given as “Key”.

On to “2739 (YKIGGIG; REGION 1..7: note = epitope) [compound 2739]”, for which the “Epitope sequence binding to IgE antibody, rank of the sequence” value under setting [6] was “Preferably”. Consider “2653 (EAAE; REGION 1..4: note = epitope) [compound 2653]”, for which, under setting [6], the “Epitope sequence binding to IgE antibody, rank of the sequence” value is “Key”. “2523 (PSQLNPQA; REGION 1..8: note = epitope) [compound 2523]”: the “Epitope sequence binding to IgE antibody, rank of the sequence” value (serum of patient P56 (child, general immediate type allergy to wheat), partial sequence) was “Further preferably”. Consider “1752 (ANFTSQVIIM; REGION 1..10: note = epitope) [compound 1752]”, for which the “epitope sequence binding to IgE antibody, rank (Key/Preferably/More preferably)” value (serum of patient G8 (adult, general immediate type allergy to wheat)) was “Key”. As to “2680 (YKGPTL; REGION 1..6: note = epitope) [compound 2680]”, the “Epitope sequence binding to IgE antibody, rank of the sequence” value under setting [4] was “Key”. In the case of “2607 (LQQSTYQLVQ; REGION 1..10: note = epitope) [compound 2607]”, the “Epitope sequence binding to IgE antibody, rank of the sequence” value (serum of patient G6 (adult, general immediate type allergy to wheat), partial sequence) is reported as “Key”.

For the substance “1785 (LKKVGYNP; REGION 1..8: note = epitope) [compound 1785]”, the “epitope sequence binding to IgE antibody, rank (Key/Preferably/More preferably)” value (serum of patient G7 (adult, general immediate type allergy to wheat)) was “Key”. Turning to “1853 (TVRTLQR; REGION 1..7: note = epitope) [compound 1853]”, the “epitope sequence binding to IgE antibody, rank (Key/Preferably/More preferably)” value (serum of patient P17 (WDEIA)) is reported as “Preferably”. Consider “2574 (QLVQQL; REGION 1..6: note = epitope) [compound 2574]”, for which the “Epitope sequence binding to IgE antibody, rank of the sequence” value (serum of patient P28 (WDEIA), partial sequence) is reported as “Preferably”.

In the case of “2696 (YKGPTL; REGION 1..6: note = epitope) [compound 2696]”, the “Epitope sequence binding to IgE antibody, rank of the sequence” value under setting [5] is given as “Key”.

For the substance “2561 (LVQQL; REGION 1..5: note = epitope) [compound 2561]”, the “Epitope sequence binding to IgE antibody, rank of the sequence” value under setting [3] is given as “Key”.

In the case of “1767 (KKVGYNP; REGION 1..7: note = epitope) [compound 1767]”, the “epitope sequence binding to IgE antibody, rank (Key/Preferably/More preferably)” value (serum of patient P33 (WDEIA)) was “Key”. As to “1249 (QQPIQQQP; REGION 1..8: note = epitope) [compound 1249]”, under setting [7], the “Epitope sequence binding to IgE antibody, rank of the sequence” value was “Key”. Regarding “2648 (NKRSFK; REGION 1..6: note = epitope) [compound 2648]”, the “Epitope sequence binding to IgE antibody, rank of the sequence” value (serum of patient P26 (WDEIA), partial sequence) was “Key”.

As for “1525 (LVQQQQFLG; REGION 1..9: note = epitope) [compound 1525]”, the “Rank of partial sequence” value (serum of patient P10 (WDEIA), sequence without X) is given as “Preferably”. Take “1269 (LPRS; REGION 1..4: note = epitope) [compound 1269]”: the “Epitope sequence binding to IgE antibody, rank of the sequence” value under setting [1] was “Key”. As for “1479 (YLQPQQPISQ; REGION 1..10: note = epitope) [compound 1479]”, under setting [7], the “Rank of partial sequence” value is “Preferably”.

For the substance “1845 (YTVRTLQR; REGION 1..8: note = epitope) [compound 1845]”, the “epitope sequence binding to IgE antibody, rank (Key/Preferably/More preferably)” value (serum of patient P12 (WDEIA)) is “Preferably”. Turning to “1672 (PDKVPFVPIS; REGION 1..10: note = epitope) [compound 1672]”, the “Rank of partial sequence” value (serum of patient G4 (adult, general immediate type allergy to wheat), sequence without X) is recorded as “Key”.

For the origin of these results see patent US20240393292A1, “ALLERGY ANTIGEN AND EPITOPE THEREOF” (HOYU CO., LTD., priority 2019, published 2024).
